Measured values: patent US9708336B2, “Metallo-beta-lactamase inhibitors” (priority 2014, dated 2017)
pIC50: −log10 of the molar value. Like-named read-outs stand apart in the source and are kept apart here.

Key:
IMP-1 = IMP-1 (Serratia marcescens, UniProt P52699); experiment: biochemical; format: biochemical; details: read-out: IMP-1 IC50
NDM-1 = NDM-1 (Klebsiella pneumoniae, UniProt C7C422); experiment: biochemical; format: biochemical; details: read-out: NDM-1 IC50
[1] = system: Serratia marcescens expressing IMP-1 (CL5741); experiment: Antibiotic potentiation activity: synergistic concentration (MITC95) with imipenem, OD600 growth; format: cell-based; details: for Serratia marcescens expressing IMP-1 (CL5741) MITC95: concentration giving 95% inhibition of bacterial growth
Summary of the method: (§1)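 Absorbance after a 22–24 h, 35 °C incubation served as the read-out. Wells held bacteria (saline suspension diluted 1:100 into 1.1× CAMHB), imipenem at 4 μg/ml final or optionally 1 μg/ml, and test compound.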

[2] = system: Escherichia coli expressing NDM-1 (CLB30005); experiment: as above; format: cell-based; details: for Escherichia coli expressing NDM-1 (CLB 30005) MITC95: concentration giving 95% inhibition of bacterial growth
Summary of the method: as §1

[3] = system: Klebsiella pneumoniae expressing VIM-1 (IHMA599644); experiment: as above; format: cell-based; details: for Klebsiella pneumoniae expressing VIM-1 (IHMA 599644) MITC95: concentration giving 95% inhibition of bacterial growth
Summary of the method: as §1

VIM-1 = VIM-1 (Pseudomonas aeruginosa (strain ATCC 15692 / DSM 22644 / CIP 104116 / JCM 14847 / LMG 12228 / 1C / PRS 101 / PAO1), UniProt A0A0F7KYQ8); experiment: Enzyme activity: determination of IC50, fluorescence assay with CCF2-FA substrate (VIM-1); format: biochemical
[4] = system: Escherichia coli expressing NDM-1 (CLB30016); experiment: Antibiotic potentiation activity: synergistic concentration (MITC95) with imipenem, OD600 growth; format: cell-based; details: for Escherichia coli expressing NDM-1 (CLB 30016) MITC95: concentration giving 95% inhibition of bacterial growth
Summary of the method: as §1

[5] = fluorescence assay with CCF2-FA substrate
[6] = NDM-1 enzyme, CCF2-FA fluorescence assay
[7] = Serratia marcescens expressing IMP-1 (CL5741), 95% growth inhibition
[8] = Klebsiella pneumoniae expressing VIM-1 (IHMA599644), 95% growth inhibition
[9] = fluorescence assay with CCF2-FA substrate, read-out: VIM-1 IC50
[10] = VIM-1 enzyme, CCF2-FA fluorescence assay, read-out: VIM-1 IC50
[11] = IMP-1 enzyme, CCF2-FA fluorescence assay
[12] = Escherichia coli expressing NDM-1 (CLB30016), 95% growth inhibition
[13] = CL5741 (IMP-1), 95% inhibition of bacterial growth
[14] = CLB30016 (NDM-1), 95% inhibition of bacterial growth
[15] = IHMA599644 (VIM-1), 95% inhibition of bacterial growth
[16] = VIM-1 enzyme, CCF2-FA substrate, read-out: VIM-1 IC50
[17] = IMP-1 enzyme, CCF2-FA substrate
[18] = NDM-1 enzyme, CCF2-FA substrate
[19] = Serratia marcescens CL5741 (IMP-1), 95% growth inhibition
[20] = (CLB30016, NDM-1), 95% growth inhibition
[21] = Klebsiella pneumoniae IHMA599644 (VIM-1), 95% growth inhibition

Chain of IMP-1 (P52699 whole entry, looked up): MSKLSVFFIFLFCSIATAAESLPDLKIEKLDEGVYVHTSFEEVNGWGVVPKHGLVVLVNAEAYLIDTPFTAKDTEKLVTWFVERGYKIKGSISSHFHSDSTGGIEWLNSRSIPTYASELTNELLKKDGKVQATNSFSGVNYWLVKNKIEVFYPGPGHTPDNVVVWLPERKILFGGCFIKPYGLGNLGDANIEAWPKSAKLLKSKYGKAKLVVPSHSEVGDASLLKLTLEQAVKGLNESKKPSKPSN
Chain of NDM-1 (C7C422 whole entry, looked up, species assumed): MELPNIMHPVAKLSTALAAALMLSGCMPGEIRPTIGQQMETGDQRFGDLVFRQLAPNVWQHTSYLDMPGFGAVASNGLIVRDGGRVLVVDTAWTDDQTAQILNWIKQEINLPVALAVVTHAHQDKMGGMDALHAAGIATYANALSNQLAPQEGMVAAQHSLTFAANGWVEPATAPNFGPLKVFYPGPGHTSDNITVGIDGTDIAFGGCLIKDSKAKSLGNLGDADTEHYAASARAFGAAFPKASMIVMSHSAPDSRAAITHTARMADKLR

NS(=O)(=O)c1cccc(-c2ncccn2)c1-c1nn[nH]n1 [Example 39, 3-pyrimidin-2-yl-2-(2H-tetrazol-5-yl)benzenesulfonamide]
pIC50 (IMP-1; [5]): 5.59 | pIC50 (NDM-1; [5]): 6.46 | Serratia marcescens expressing IMP-1 (CL5741) MITC95 [1]: 50 µM | Escherichia coli expressing NDM-1 (CLB 30005) MITC95 [2]: 1.563 µM | Klebsiella pneumoniae expressing VIM-1 (IHMA 599644) MITC95 [3]: >200 µM

NS(=O)(=O)c1cccc(-c2nccs2)c1-c1nn[nH]n1 [Example 35, 2-(2H-tetrazol-5-yl)-3-(1,3-thiazol-2-yl)benzenesulfonamide]
pIC50 (IMP-1; [5]): 5.57 | pIC50 (NDM-1; [5]): 6.86 | Serratia marcescens expressing IMP-1 (CL5741) MITC95 [1]: 50 µM | Escherichia coli expressing NDM-1 (CLB 30005) MITC95 [2]: 1.953 µM | Klebsiella pneumoniae expressing VIM-1 (IHMA 599644) MITC95 [3]: 100 µM

CCOC(=O)CCn1cc(-c2cccc(S(N)(=O)=O)c2-c2nn[nH]n2)cn1 [Example 110, ethyl 3-{4-[3-sulfamoyl-2-(2H-tetrazol-5-yl)phenyl]-1H-pyrazol-1-yl}propanoate]
pIC50 (IMP-1; [5]): 6.35 | pIC50 (NDM-1; [5]): 7.28 | Serratia marcescens expressing IMP-1 (CL5741) MITC95 [1]: 28.13 µM | Escherichia coli expressing NDM-1 (CLB 30005) MITC95 [2]: 9.375 µM | Klebsiella pneumoniae expressing VIM-1 (IHMA 599644) MITC95 [3]: >200 µM

COC(=O)c1ccc(-c2nn[nH]n2)c(S(N)(=O)=O)c1 [Example 255, Methyl 3-sulfamoyl-4-(2H-tetrazol-5-yl)benzoate]
pIC50 (NDM-1; [6]): 6.16 | Serratia marcescens MITC95 [1, 7]: >200 µM | Escherichia coli MITC95 ([2]; Escherichia coli expressing NDM-1 (CLB30005), 95% growth inhibition): 25 µM | Klebsiella pneumoniae MITC95 [3, 8]: >200 µM

CN(C(=O)c1ccc(-c2cccc(S(N)(=O)=O)c2-c2nn[nH]n2)cc1)C1CCOCC1 [Example 77, N-methyl-3′-sulfamoyl-N-(tetrahydro-2H-pyran-4-yl)-2′-(2H-tetrazol-5-yl)biphenyl-4-carboxamide]
pIC50 (IMP-1; [5]): 7.27 | pIC50 (NDM-1; [5]): 7.92 | Serratia marcescens expressing IMP-1 (CL5741) MITC95 [1]: 28.13 µM | Escherichia coli expressing NDM-1 (CLB 30005) MITC95 [2]: 9.375 µM | Klebsiella pneumoniae expressing VIM-1 (IHMA 599644) MITC95 [3]: >200 µM

NS(=O)(=O)c1cccc(-c2csc(CN3CCOCC3)c2)c1-c1nn[nH]n1 [Example 103, 3-[5-(morpholin-4-ylmethyl)thiophen-3-yl]-2-(2H-tetrazol-5-yl)benzenesulfonamide]
pIC50 (IMP-1; [5]): 6.51 | pIC50 (NDM-1; [5]): 7.31 | Serratia marcescens expressing IMP-1 (CL5741) MITC95 [1]: 15.63 µM | Escherichia coli expressing NDM-1 (CLB 30005) MITC95 [2]: 9.375 µM | Klebsiella pneumoniae expressing VIM-1 (IHMA 599644) MITC95 [3]: >200 µM

NS(=O)(=O)c1cccc(-c2ccnc(CO)c2)c1-c1nn[nH]n1 [Example 92, 3-[2-(hydroxymethyl)pyridin-4-yl]-2-(2H-tetrazol-5-yl)benzenesulfonamide]
Serratia marcescens expressing IMP-1 (CL5741) MITC95 [1]: 50 µM | Escherichia coli expressing NDM-1 (CLB 30005) MITC95 [2]: 0.3906 µM

NS(=O)(=O)c1cccc(Cc2ccccc2)c1-c1nnn[nH]1 [Example 162, 3-benzyl-2-(1H-tetrazol-5-yl)benzenesulfonamide]
pIC50 (VIM-1; [9]): 6.16 | pIC50 (IMP-1; [5]): 6.24 | pIC50 (NDM-1; [5]): 7.72 | Serratia marcescens expressing IMP-1 (CL5741) MITC95 [1]: 12.5 µM | Escherichia coli expressing NDM-1 (CLB 30016) MITC95 [4]: 1.563 µM | Klebsiella pneumoniae expressing VIM-1 (IHMA 599644) MITC95 [3]: 200 µM

NS(=O)(=O)c1cccc(-c2cc3ccncc3s2)c1-c1nnn[nH]1 [Example 410, 2-(1H-tetrazol-5-yl)-3-thieno[2,3-c]pyridin-2-yl-benzenesulfonamide]
pIC50 (VIM-1; [10]): 7.72 | pIC50 (IMP-1; [11]): 6.97 | pIC50 (NDM-1; [6]): 8.39 | Serratia marcescens MITC95 [1, 7]: 3.125 µM | Escherichia coli MITC95 [4, 12]: 0.5859 µM | Klebsiella pneumoniae MITC95 [3, 8]: 18.75 µM

NS(=O)(=O)c1c(C(F)(F)F)ccc(N2CCN(CCCO)CC2)c1-c1nnn[nH]1 [Example 763, 3-[4-(3-hydroxypropyl)piperazin-1-yl]-2-(1H-tetrazol-5-yl)-6-(trifluoromethyl) benzenesulfonamide]
pIC50 (VIM-1; [9]): 7.13 | pIC50 (IMP-1; [5]): 7.33 | pIC50 (NDM-1; [5]): 7.42 | Serratia marcescens MITC95 [1, 13]: 3.125 µM | Escherichia coli MITC95 [4, 14]: 1.563 µM | Klebsiella pneumoniae MITC95 [3, 15]: 50 µM

NS(=O)(=O)c1cccc(-c2ccc(CNC3CCC(=O)NC3)cc2)c1-c1nnn[nH]1 (stereo not shown) [Example 375, 4′-{[(6-oxopiperidin-3-yl)amino]methyl}-2-(1H-tetrazol-5-yl)biphenyl-3-sulfonamide]
pIC50 (VIM-1; [10]): 6.27 | pIC50 (IMP-1; [11]): 7.01 | pIC50 (NDM-1; [6]): 8.21 | Serratia marcescens MITC95 [1, 7]: 3.125 µM | Escherichia coli MITC95 [4, 12]: 1.563 µM | Klebsiella pneumoniae MITC95 [3, 8]: >200 µM

N=C(NC1CNC1)c1ccc(-c2ccc(C(F)(F)F)c(S(N)(=O)=O)c2-c2nn[nH]n2)cc1 [Example 563, N-(azetidin-3-yl)-3′-sulfamoyl-2′-(2H-tetrazol-5-yl)-4′-(trifluoromethyl)biphenyl-4-carboximidamide]
pIC50 (VIM-1; [16]): 8.30 | pIC50 (IMP-1; [17]): 7.34 | pIC50 (NDM-1; [18]): 7.27 | Serratia marcescens MITC95 [1, 19]: 6.25 µM | Escherichia coli MITC95 [4, 20]: 3.125 µM | Klebsiella pneumoniae MITC95 [3, 21]: 3.125 µM

NS(=O)(=O)c1c(C(F)(F)F)ccc(N2CCCC(CO)C2)c1-c1nnn[nH]1 (stereo not shown) [Example 659, 3-[3-(hydroxymethyl)piperidin-1-yl]-2-(1H-tetrazol-5-yl)-6-(trifluoromethyl)benzenesulfonamide]
pIC50 (VIM-1; [16]): 8.19 | pIC50 (IMP-1; [17]): 7.44 | pIC50 (NDM-1; [18]): 7.73 | Serratia marcescens MITC95 [1, 19]: 2.344 µM | Escherichia coli MITC95 [4, 20]: 15.63 µM | Klebsiella pneumoniae MITC95 [3, 21]: 25 µM

N#Cc1cccc(Cc2cccc(S(N)(=O)=O)c2-c2nnn[nH]2)c1 [Example 152, 3-(3-cyanobenzyl)-2-(1H-tetrazol-5-yl)benzenesulfonamide]
pIC50 (VIM-1; [9]): 7.04 | pIC50 (IMP-1; [5]): 6.60 | pIC50 (NDM-1; [5]): 7.85 | Serratia marcescens expressing IMP-1 (CL5741) MITC95 [1]: 12.5 µM | Escherichia coli expressing NDM-1 (CLB 30016) MITC95 [4]: 4.688 µM | Klebsiella pneumoniae expressing VIM-1 (IHMA 599644) MITC95 [3]: 200 µM

NS(=O)(=O)c1nccc(N2CCC(Cn3ccnc3)CC2)c1-c1nnn[nH]1 [Example 233, 4-[4-(1H-imidazol-1-ylmethyl)piperidin-1-yl]-3-(1H-tetrazol-5-yl)pyridine-2-sulfonamide]
pIC50 (VIM-1; [9]): 7.01 | pIC50 (IMP-1; [5]): 6.71 | pIC50 (NDM-1; [5]): 7.22 | Serratia marcescens expressing IMP-1 (CL5741) MITC95 [1]: 6.25 µM | Escherichia coli expressing NDM-1 (CLB 30016) MITC95 [4]: 0.7813 µM | Klebsiella pneumoniae expressing VIM-1 (IHMA 599644) MITC95 [3]: 37.5 µM

NCCNC1CCC(c2ccc(C(F)(F)F)c(S(N)(=O)=O)c2-c2nnn[nH]2)CC1 (stereo not drawn) [Example 827, 3-[4-(trans-2-aminoethylamino)cyclohexyl]-2-(1H-tetrazol-5-yl)-6-(trifluoromethyl)benzenesulfonamide]
pIC50 (VIM-1; VIM-1 IC50, fluorescence assay with CCF2-FA substrate): 8.59 | pIC50 (IMP-1; [5]): 7.65 | pIC50 (NDM-1; [5]): 8.24 | Serratia marcescens MITC95 [1, 13]: 0.3906 µM | Escherichia coli MITC95 [4, 14]: 0.3906 µM | Klebsiella pneumoniae MITC95 [3, 15]: 1.172 µM

NC1(c2ccc(-c3ccc(C(F)(F)F)c(S(N)(=O)=O)c3-c3nnn[nH]3)cc2)CC(O)C1 (stereo not shown) [Example 728, 4′-(1-amino-3-hydroxycyclobutyl)-2-(1H-tetrazol-5-yl)-4-(trifluoromethyl)biphenyl-3-sulfonamide]
pIC50 (VIM-1; VIM-1 IC50, VIM-1 enzyme, CCF2-FA substrate): 8.40 | pIC50 (IMP-1; [17]): 8.38 | pIC50 (NDM-1; [18]): 8.59 | Serratia marcescens MITC95 [1, 19]: 6.25 µM | Escherichia coli MITC95 [4, 20]: 3.125 µM | Klebsiella pneumoniae MITC95 [3, 21]: 25 µM

Nc1nc2cccc(-c3ccc(C(F)(F)F)c(S(N)(=O)=O)c3-c3nnn[nH]3)c2s1 [Example 553, 3-(2-amino-1,3-benzothiazol-7-yl)-2-(1H-tetrazol-5-yl)-6-(trifluoromethyl)benzenesulfonamide]
pIC50 (VIM-1; [16]): 10.20 | pIC50 (IMP-1; [17]): 9.02 | pIC50 (NDM-1; [18]): 10.30 | Serratia marcescens MITC95 [1, 19]: 3.125 µM | Escherichia coli MITC95 [4, 20]: 3.125 µM | Klebsiella pneumoniae MITC95 [3, 21]: 3.125 µM

NCC(CN)c1ccc(-c2cccc(S(N)(=O)=O)c2-c2nnn[nH]2)cc1 [Example 509, 4′-(1,3-Diaminopropan-2-yl)-2-(1H-tetrazol-5-yl)-[1,1′-biphenyl]-3-sulfonamide]
pIC50 (VIM-1; [16]): 6.40 | pIC50 (IMP-1; [17]): 6.03 | pIC50 (NDM-1; [18]): 7.24 | Serratia marcescens MITC95 [1, 19]: 12.5 µM | Escherichia coli MITC95 [4, 20]: 1.563 µM | Klebsiella pneumoniae MITC95 [3, 21]: 50 µM

CN(C)C1CCC(NCc2ccc(-c3cccc(S(N)(=O)=O)c3-c3nnn[nH]3)cc2)CC1 (stereo not shown) [Example 355, 4′-({[4-(dimethylamino)cyclohexyl]amino}methyl)-2-(1H-tetrazol-5-yl)biphenyl-3-sulfonamide]
pIC50 (VIM-1; [10]): 6.06 | pIC50 (IMP-1; [11]): 6.33 | pIC50 (NDM-1; [6]): 7.85 | Serratia marcescens MITC95 [1, 7]: 4.688 µM | Escherichia coli MITC95 [4, 12]: 1.563 µM | Klebsiella pneumoniae MITC95 [3, 8]: 150 µM
